This assay deals with T1, purified human HDAC6 (Homo sapiens, UniProt Q9UBN7).
T1 construct: purchased BPS Bioscience 5006
T1 sequence (Q9UBN7 1-1215): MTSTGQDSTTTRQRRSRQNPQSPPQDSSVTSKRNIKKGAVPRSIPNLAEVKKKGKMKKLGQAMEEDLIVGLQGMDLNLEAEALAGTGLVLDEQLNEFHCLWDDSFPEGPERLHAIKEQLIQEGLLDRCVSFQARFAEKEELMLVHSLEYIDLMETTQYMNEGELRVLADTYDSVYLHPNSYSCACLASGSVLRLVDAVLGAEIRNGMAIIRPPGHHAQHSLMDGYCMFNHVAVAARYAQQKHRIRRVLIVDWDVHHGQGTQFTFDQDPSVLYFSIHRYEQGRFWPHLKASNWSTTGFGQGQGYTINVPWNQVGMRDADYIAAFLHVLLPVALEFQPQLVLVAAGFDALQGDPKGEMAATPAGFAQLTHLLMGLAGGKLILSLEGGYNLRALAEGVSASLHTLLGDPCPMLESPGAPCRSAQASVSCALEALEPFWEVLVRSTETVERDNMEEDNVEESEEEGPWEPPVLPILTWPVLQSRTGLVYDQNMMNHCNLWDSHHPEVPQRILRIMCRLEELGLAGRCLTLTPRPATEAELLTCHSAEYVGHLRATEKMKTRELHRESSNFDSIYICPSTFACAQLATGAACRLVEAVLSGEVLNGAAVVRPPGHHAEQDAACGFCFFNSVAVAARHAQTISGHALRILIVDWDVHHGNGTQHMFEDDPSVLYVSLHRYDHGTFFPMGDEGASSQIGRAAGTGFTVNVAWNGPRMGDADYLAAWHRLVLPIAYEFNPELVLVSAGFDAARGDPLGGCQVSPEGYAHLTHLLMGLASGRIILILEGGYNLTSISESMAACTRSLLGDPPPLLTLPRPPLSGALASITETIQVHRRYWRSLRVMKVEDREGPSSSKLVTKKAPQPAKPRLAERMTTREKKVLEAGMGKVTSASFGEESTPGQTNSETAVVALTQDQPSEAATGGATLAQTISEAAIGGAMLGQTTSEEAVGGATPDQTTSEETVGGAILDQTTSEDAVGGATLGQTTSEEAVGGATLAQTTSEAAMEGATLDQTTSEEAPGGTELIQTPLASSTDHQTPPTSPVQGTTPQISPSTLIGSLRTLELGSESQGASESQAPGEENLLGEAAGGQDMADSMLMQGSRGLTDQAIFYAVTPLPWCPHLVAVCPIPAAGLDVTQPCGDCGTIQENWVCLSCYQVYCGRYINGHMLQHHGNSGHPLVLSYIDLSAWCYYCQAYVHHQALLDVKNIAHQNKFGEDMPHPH
In words: HDAC6 Enzyme Assay. The assay is classed as biochemical. The conditions noted are these: HDAC6 inhibition at a compound concentration of 0.412 μM; read-out: Percent Inhibition at 0.412 μM. As for the experimental part:
To measure the inhibition of HDAC6 activity, purified human HDAC6 (BPS Bioscience; Cat. No. 5006) is incubated with substrate Ac-Arg-Gly-Lys(Ac)-AMC peptide (Bachem Biosciences; Cat. No. I-1925) for 1 hour at 30° C. in the presence of test compounds or vehicle DMSO control. The reaction is stopped with the HDAC inhibitor trichostatin A (Sigma; Cat. No. T8552) and the amount of Arg-Gly-Lys-AMC generated is quantitated by digestion with trypsin (Sigma; Cat. No. T1426) and subsequent measurement of the amount of AMC released using a fluorescent plate reader (Pherastar; BMG Technologies) set at Ex 340 nm and Em 460 nm. Concentration response curves are generated by calculating the fluorescence increase in test compound-treated samples relative to DMSO-treated controls, and enzyme inhibition (IC50) values are determined from those curves.

Structures are written as SMILES.

`O=C(NO)C1CCc2ccc(-c3cc4ccccc4s3)cc2C1` (stereo not shown) [Compound I-61, 7-(1-benzothien-2-yl)-N-hydroxy-1,2,3,4-tetrahydronaphthalene-2-carboxamide]: the inhibition at 0.412 µM is 73%.

As for `CC(C)(C)OC(=O)Nc1cccc(-c2ccc3c(c2)CC(C(=O)NO)CC3)c1` (stereo not shown) [Compound I-62, tert-butyl (3-{7-[(hydroxyamino)carbonyl]-5,6,7,8-tetrahydronaphthalen-2-yl}phenyl)carbamate], the inhibition at 0.412 µM came out at 82%.

On to `CC(C)(C)C(=O)Nc1cccc(-c2ccc3c(c2)CC(C(=O)NO)CC3)c1` (stereo not shown) [Compound I-63, 7-{3-[(2,2-dimethylpropanoyl)amino]phenyl}-N-hydroxy-1,2,3,4-tetrahydronaphthalene-2-carboxamide], for which the inhibition at 0.412 µM came to 90%.

Consider `O=C(NO)C1CCc2ccc(-c3cccc(NC(=O)C4CC4)c3)cc2C1` (stereo not shown) [Compound I-64, 7-{3-[(cyclopropylcarbonyl)amino]phenyl}-N-hydroxy-1,2,3,4-tetrahydronaphthalene-2-carboxamide], for which the inhibition at 0.412 µM was found to be 90%.

For `O=C(NO)C1CCc2cc(-c3ccc(Cl)cc3)ccc2C1` (stereo not shown) [Compound I-65, 6-(4-chlorophenyl)-N-hydroxy-1,2,3,4-tetrahydronaphthalene-2-carboxamide], the inhibition at 0.412 µM was determined as 68%.

For `O=C(NO)C1CCc2cc(-c3ccncc3)ccc2C1` (stereo not shown) [Compound I-66, N-hydroxy-6-pyridin-4-yl-1,2,3,4-tetrahydronaphthalene-2-carboxamide], the inhibition at 0.412 µM is 80%.

For `COc1cccc(-c2ccc3c(c2)CC(C(=O)NO)CC3)c1` (stereo not shown) [Compound I-67, N-hydroxy-7-(3-methoxyphenyl)-1,2,3,4-tetrahydronaphthalene-2-carboxamide], the inhibition at 0.412 µM came to 81%.

With `COc1ccccc1-c1ccc2c(c1)CC(C(=O)NO)CC2` (stereo not shown) [Compound I-68, N-hydroxy-7-(2-methoxyphenyl)-1,2,3,4-tetrahydronaphthalene-2-carboxamide], the inhibition at 0.412 µM turned out to be 76%.

`COc1ccc(-c2ccc3c(c2)CC(C(=O)NO)CC3)cc1` (stereo not shown) [Compound I-69, N-hydroxy-7-(4-methoxyphenyl)-1,2,3,4-tetrahydronaphthalene-2-carboxamide]: the inhibition at 0.412 µM was found to be 79%.

For `O=C(NO)C1CCc2ccc(-c3ccccc3Cl)cc2C1` (stereo not shown) [Compound I-70, 7-(2-chlorophenyl)-N-hydroxy-1,2,3,4-tetrahydronaphthalene-2-carboxamide], the inhibition at 0.412 µM came to 78%.

With `O=C(NO)C1CCc2ccc(-c3ccc(Cl)cc3)cc2C1` (stereo not shown) [Compound I-71, 7-(4-chlorophenyl)-N-hydroxy-1,2,3,4-tetrahydronaphthalene-2-carboxamide], the inhibition at 0.412 µM was found to be 74%.

On to `O=C(NO)C1CCc2ccc(-c3ccc4cc[nH]c4c3)cc2C1` (stereo not shown) [Compound I-72, N-hydroxy-7-(1H-indol-6-yl)-1,2,3,4-tetrahydronaphthalene-2-carboxamide], for which the inhibition at 0.412 µM is 87%.

Turning to `O=C(NO)C1CCc2ccc(Oc3ccc(NCc4ccc(Cl)cc4)cc3)cc2C1` (stereo not shown) [Compound I-73, 7-{4-[(4-chlorobenzyl)amino]phenoxy}-N-hydroxy-1,2,3,4-tetrahydronaphthalene-2-carboxamide], the inhibition at 0.412 µM came out at 64%.

In the case of `CC(=O)Nc1cccc(-c2ccc3c(c2)CCC(C(=O)NO)C3)c1` (stereo not shown) [Compound I-74, 6-[3-(acetylamino)phenyl]-N-hydroxy-1,2,3,4-tetrahydronaphthalene-2-carboxamide], the inhibition at 0.412 µM is 85%.

`O=C(NO)C1CCc2ccc(-c3ccc4[nH]ccc4c3)cc2C1` (stereo not shown) [Compound I-75, N-hydroxy-7-(1H-indol-5-yl)-1,2,3,4-tetrahydronaphthalene-2-carboxamide]: the inhibition at 0.412 µM came to 77%.

For `COc1ccc2c(c1)CC(C)(C(=O)NO)CC2` (stereo not shown) [Compound I-76, N-hydroxy-7-methoxy-2-methyl-1,2,3,4-tetrahydronaphthalene-2-carboxamide], the inhibition at 0.412 µM is 0%.

Consider `O=C(NO)C1CCc2cc(NC(=O)C3CC3)ccc2C1` (stereo not shown) [Compound I-77, 6-[(cyclopropylcarbonyl)amino]-N-hydroxy-1,2,3,4-tetrahydronaphthalene-2-carboxamide], for which the inhibition at 0.412 µM is 68%.

For `O=C(NO)C1CCc2cc(Nc3ccc(Cl)cc3)ccc2C1` (stereo not shown) [Compound I-78, 6-[(4-chlorophenyl)amino]-N-hydroxy-1,2,3,4-tetrahydronaphthalene-2-carboxamide], the inhibition at 0.412 µM was 48%.

With `COc1cccc(Nc2ccc3c(c2)CCC(C(=O)NO)C3)c1` (stereo not shown) [Compound I-79, N-hydroxy-6-[(3-methoxyphenyl)amino]-1,2,3,4-tetrahydronaphthalene-2-carboxamide], the inhibition at 0.412 µM came to 43%.

For `COc1ccc(Nc2ccc3c(c2)CCC(C(=O)NO)C3)cc1` (stereo not shown) [Compound I-80, N-hydroxy-6-[(4-methoxyphenyl)amino]-1,2,3,4-tetrahydronaphthalene-2-carboxamide], the inhibition at 0.412 µM stood at 43%.

For `O=C(NO)C1CCc2ccc(-c3ccc4[nH]cnc4c3)cc2C1` (stereo not shown) [Compound I-81, 7-(1H-benzimidazol-5-yl)-N-hydroxy-1,2,3,4-tetrahydronaphthalene-2-carboxamide], the inhibition at 0.412 µM worked out at 89%.

With `O=C(NO)C1CCc2ccc(-c3c[nH]c4ccccc34)cc2C1` (stereo not shown) [Compound I-82, N-hydroxy-7-(1H-indol-3-yl)-1,2,3,4-tetrahydronaphthalene-2-carboxamide], the inhibition at 0.412 µM is 83%.

`O=C(NO)C1CCc2cc(Nc3ccccc3Cl)ccc2C1` (stereo not shown) [Compound I-83, 6-[(2-chlorophenyl)amino]-N-hydroxy-1,2,3,4-tetrahydronaphthalene-2-carboxamide]: the inhibition at 0.412 µM worked out at 37%.

Turning to `COc1ccccc1Nc1ccc2c(c1)CCC(C(=O)NO)C2` (stereo not shown) [Compound I-84, N-hydroxy-6-[(2-methoxyphenyl)amino]-1,2,3,4-tetrahydronaphthalene-2-carboxamide], the inhibition at 0.412 µM was determined as 38%.

As to `CC1(C(=O)Nc2ccc3c(c2)CCC(C(=O)NO)C3)CCNCC1` (stereo not shown) [Compound I-85, N-{6-[(hydroxyamino)carbonyl]-5,6,7,8-tetrahydronaphthalen-2-yl}-4-methylpiperidine-4-carboxamide], the inhibition at 0.412 µM came out at 74%.

As for `O=C(NO)C1CCc2ccc(-c3ccc4ccccc4c3)cc2C1` (stereo not shown) [Compound I-86, N-hydroxy-5,6,7,8-tetrahydro-2,2′-binaphthalene-7-carboxamide], the inhibition at 0.412 µM is 73%.

As to `O=C(NO)C1CCc2ccc(-c3cnc4[nH]ccc4c3)cc2C1` (stereo not shown) [Compound I-87, N-hydroxy-7-(1H-pyrrolo[2,3-b]pyridin-5-yl)-1,2,3,4-tetrahydronaphthalene-2-carboxamide], the inhibition at 0.412 µM stood at 85%.

Take `Cc1nnc(-c2cccc(-c3ccc4c(c3)CC(C(=O)NO)CC4)c2)o1` (stereo not shown) [Compound I-88, N-hydroxy-7-[3-(5-methyl-1,3,4-oxadiazol-2-yl)phenyl]-1,2,3,4-tetrahydronaphthalene-2-carboxamide]: the inhibition at 0.412 µM worked out at 79%.

In the case of `CC(C)Oc1ccc(-c2ccc3c(c2)CC(C(=O)NO)CC3)cc1` (stereo not shown) [Compound I-89, N-hydroxy-7-(4-isopropoxyphenyl)-1,2,3,4-tetrahydronaphthalene-2-carboxamide], the inhibition at 0.412 µM was 66%.

As to `O=C(NO)C1CCc2ccc(-c3ccc4c(c3)CCO4)cc2C1` (stereo not shown) [Compound I-90, 7-(2,3-dihydro-1-benzofuran-5-yl)-N-hydroxy-1,2,3,4-tetrahydronaphthalene-2-carboxamide], the inhibition at 0.412 µM stood at 85%.

On to `O=C(NO)C1CCc2ccc(-c3ccc4nonc4c3)cc2C1` (stereo not shown) [Compound I-91, 7-(2,1,3-benzoxadiazol-5-yl)-N-hydroxy-1,2,3,4-tetrahydronaphthalene-2-carboxamide], for which the inhibition at 0.412 µM amounted to 77%.

One may read the inhibition as the share of the control response that was lost under treatment.
